Key:
[1] = system: linearized plasmid DNA (linear double stranded DNA, 6.8 kb); assay: Gel mobility shift assay; format: binding; settings: minimum peptide needed for complete shift of 100 ng plasmid DNA; — = no shift up to highest ratio tested
Description: The ten non-labelled oTP sequences identified as having both cell penetrating and organelle targeting properties (Tables 3 and 4) were tested, using a gel mobility shift assay and a nuclease protection assay, for their ability to bind non-covalently to nucleic acids.
The gel mobility shift assay is used to determine the minimum peptide concentration needed to bind to plasmid DNA and cause it to shift during electrophoresis. Purified linearized plasmid DNA (100 ng of linear double stranded DNA, 6.8 kb) is mixed with increasing concentrations of each of the ten oTPs listed in Tables 3 and 4, according to calculated increasing peptide:DNA charge ratios (1:1, 2:1, 3:1, 4:1, 5:1, etc.) until a complete shift is observed in the plasmid DNA during electrophoresis. The DNA is prepared to a final concentration of a 100 ng/μl in sterile water. Each reaction has a final volume of 25 μl and is incubated for 30 min for complex formation and subjected to electrophoresis on 1% agarose gel stained with ethidium bromide.

[2] = system: mitochondria of triticale protoplasts; assay: qRT-PCR of gfp mRNA, protoplasts transfected with pWMaadA16GFP; format: cell-based; settings: gfp reporter construct
From the text: (§1) FIG. 19 is a plot showing the level of expression (fold increase, average of 4 replicates) of GFP in triticale protoplasts transfected with the pWMaadA16GFP plasmid in the presence of mTP1 (SEQ ID NO: 1), mTP2 (SEQ ID NO: 2), mTP3 (SEQ ID NO: 3), mTP4 (SEQ ID NO: 4) or mTP5 (SEQ ID NO: 5) compared to the level of expression (fold increase) of the internal control elongation factor 1a (EF1a), as measured by quantitative real time PCR of mRNA levels; and
(§2) Wheat mitochondrial aadA16GFP reporter plasmid (pWMaadA16GFP, FIG. 11) is a 4587 base pair wheat specific mitochondrial transformation vector, which targets insertions into the fourth repeat region between the trnfM and rm18 gene cluster which is repeated three times in the Triticum aestivum mitochondrial genome. The insertion site is in the Triticum aestivum mitochondrial genome at nucleotides 300805-300878 and 300880-302834 (GenBank accession No. AP008982.1). A multiple cloning site is introduced following the tmfM target insertion sequence. The selection marker gene is an organelle codon specific aad-gfp fusion gene, which facilitates a dual selection method of spectinomycin resistance through an aadA derivative and visual detection by GFP fluorescence (GenBank accession No. ABX39486; Khan and Maliga, Nat. Biotechnol. (1999 September) 17(9): 910-5). The selection marker gene is driven by the Triticum aestivum mitochondrial atpA gene promoter (GenBank accession No. X54387.1). The aad-gfp fusion gene is terminated with the TpsbA terminator sequence derived from the Triticum aestivum mitochondrial genome at nucleotides 62871-62565 (GenBank accession No. AP008982.1).
The dsDNA construct (pWMaadA16GFP for mitochondrial expression or pWCaadA16GFP for expression in chloroplasts) is combined with the mTP (for mitochondrial expression) or cTP (for expression in chloroplasts) in a final volume of 100 μl of CPW solution. For experiments using mTP1 (SEQ ID NO: 1), mTP2 (SEQ ID NO: 2), mTP3 (SEQ ID NO: 3), or mTP5 (SEQ ID NO: 5), peptides (scaled up from 100 ng, at four times the concentration needed to cause a DNA shift in the gel mobility shift assay (Table 7)) are combined with the pWMaadA16GFP construct (5 μg). For experiments using the remaining oTPs, peptides (30 μg) are combined with the appropriate dsDNA construct (1.5 μg). The mixture is incubated for 10 minutes at room temperature, then incubated with isolated triticale mesophyll protoplasts (500 μl, 10^6 protoplasts/ml, prepared as described in Example 2) for 1 h in the dark at room temperature. CPW solution (500 μl) is added and the mixture is incubated in the dark for 24 h. The cells are imaged using confocal microscopy, as described in Example 2, using MitoTracker® Orange staining to visualize mitochondria and chlorophyll autofluorescence to visualize chloroplasts.
(§3) cDNA is generated using a First Strand Synthesis kit (Invitrogen). RNA (1 μg) is added to each sample and the manufacturer's protocol for synthesis followed, with the exception that the volume of the reaction mixture is increased from 20 μl to 30 μl. A negRT sample containing all reagents but no RNA is included in the cDNA synthesis as a negative control.
Standard curves are generated for both elongation factor 1a (EF1a) (internal control) and green fluorescent protein (GFP) (test) genes. […]
(§4) Real time PCR reactions are performed using QuantiTect™ SYBR™ Green PCR Master Mix (Qiagen) in a 20 μl reaction volume. […]

[3] = system: mitochondria of triticale microspores; assay: qRT-PCR of gfp mRNA, microspores transfected with pWMaadA16GFP; format: cell-based; settings: gfp reporter construct
From the text: as §1, with “17” for “19”, “microspores” for “protoplasts”, “levels;” for “levels; and”
as §2
The dsDNA construct (pWMaadA16GFP for mitochondrial expression or pWCaadA16GFP for expression in chloroplasts) is combined with the mTP (for mitochondrial expression) or cTP (for expression in chloroplasts) in the amounts used in the protoplast transformation experiments described above in a final volume of 100 μl of NBP-99 solution. The mixture is incubated for 10 minutes at room temperature, then incubated with isolated triticale microspores (500 μl, 10^6 microspores/ml, prepared as described in Example 2) for 1 h in the dark at room temperature. NBP-99 solution (500 μl) is added and the mixture is incubated in the dark for 24 h. The cells are imaged using confocal microscopy, as described in Example 2, using MitoTracker® Orange staining to visualize mitochondria.
Microspores are disrupted using a cleaned ceramic bead and aggressive shaking as the tissue is thawing. RLT buffer/B-Me (450 μl) is added and the sample is vortexed. The sample is heated at 55° C. for 1 minute and vortexed again. RNA is extracted using an RNeasy™ Plant Mini Kit (Qiagen), incorporating on-column DNase I digestion into the protocol. The final elution volume is 40 μl. RNA is assessed using both agarose gel […] (to ensure RNA is intact) and spectrophotometry (for quantification).
as §3, with “control. […]” for “control.”
as §4

Sequence | Peptide:DNA Ratio, Molar Binding Ratio [1] | GFP expression by mitochondria confirmed by qRT-PCR [2] | GFP expression by mitochondria confirmed by qRT-PCR [3]
MAAWMRSLFSPLKKLWIRMH (Zea mays) [mTP2] | 167.39 | GFP is expressed | GFP is expressed
MFSYLPRYPLRAASARALVRATRPSYRSALLRYQ (listed as Triticum aestivum) [mTP1] | 264.14 | GFP is expressed | GFP is expressed
MKLLWRLILSRKW (listed as Arabidopsis thaliana) [mTP3] | 71.39 | GFP is expressed | GFP is expressed
MLFRLRRSVRLRGLLA (listed as Arabidopsis thaliana) [mTP5] | 114.29 | GFP is expressed | GFP is expressed
MWWRRSRTNSLRYT (listed as Arabidopsis thaliana) [mTP4] | – | GFP is expressed | GFP is expressed

Source: patent publication US20140196172A1, “Organelle Targeting Nanocarriers” (Her Majesty the Queen in Right of Canada, as Repre sented …, priority 2011, published 2014)
